Results on 21 compounds are retold here after ChEMBL document CHEMBL1140134, “Structure-guided design of N-phenyl tertiary amines as transrepression-selective liver X receptor modulators with anti-inflammatory activity” (J Med Chem, 2008).

Molecules are shown by their SMILES.

The target of data set [1] is T1, Oxysterols receptor LXR-alpha (Homo sapiens, UniProt Q13133).
T1 sequence (Q13133 whole entry): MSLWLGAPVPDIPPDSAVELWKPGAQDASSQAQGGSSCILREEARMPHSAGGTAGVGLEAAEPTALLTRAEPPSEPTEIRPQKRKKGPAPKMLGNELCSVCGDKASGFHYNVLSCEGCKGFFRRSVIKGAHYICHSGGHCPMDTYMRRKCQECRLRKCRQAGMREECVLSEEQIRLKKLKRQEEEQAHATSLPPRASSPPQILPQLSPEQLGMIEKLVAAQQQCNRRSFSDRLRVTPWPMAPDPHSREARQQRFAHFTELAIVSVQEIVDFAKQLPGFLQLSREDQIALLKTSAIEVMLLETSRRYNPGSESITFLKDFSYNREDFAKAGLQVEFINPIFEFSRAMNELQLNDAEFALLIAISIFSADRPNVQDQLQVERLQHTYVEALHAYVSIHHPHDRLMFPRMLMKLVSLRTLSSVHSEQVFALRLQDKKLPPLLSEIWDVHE
The data set can be described thus: Displacement of [N-methyl-3H]GW0438 from human biotinylated LXRalpha ligand binding domain.

Data set [2] has as its system THP-1. The data set can be described thus: Antiinflammatory activity against human THP1 cells assessed as inhibition of LPS-stimulated IL6 production after 6 hrs by ELISA. Type of data set: functional, cell-based. The settings on record: THP-1, 6 h. For orientation: In an ELISA, binding on a coated surface is turned into a signal by an enzyme label.
For data set [3], the system named is THP-1. The data set can be described thus: Antiinflammatory activity against human THP1 cells assessed as inhibition of LPS-stimulated IL6 production by ELISA relative to N-(4-(1,1,1,3,3,3-hexafluoro-2-hydroxypropan-2-yl)phenyl)-N-(2,2,2-trifluoroethyl)benzenesulfonamide. Type of data set: functional.
Data set [4] relates to Huh-7. The data set can be described thus: Lipogenic activity against human HuH7 cells assessed as triglyceride accumulation at 10 uM after 4 days relative to N-(4-(1,1,1,3,3,3-hexafluoro-2-hydroxypropan-2-yl)phenyl)-N-(2,2,2-trifluoroethyl)benzenesulfonamide. Type of data set: functional.
Data set [5] in a line: Metabolic stability in human HuH7 cells at 1 uM after 24 hrs. It counts as ADME, cell-based, Huh-7. Conditions: read-out: Stability.
Data set [6] has as its target T2, Nuclear receptor subfamily 1 group I member 2 (Homo sapiens, UniProt O75469).
T2 sequence (O75469 whole entry): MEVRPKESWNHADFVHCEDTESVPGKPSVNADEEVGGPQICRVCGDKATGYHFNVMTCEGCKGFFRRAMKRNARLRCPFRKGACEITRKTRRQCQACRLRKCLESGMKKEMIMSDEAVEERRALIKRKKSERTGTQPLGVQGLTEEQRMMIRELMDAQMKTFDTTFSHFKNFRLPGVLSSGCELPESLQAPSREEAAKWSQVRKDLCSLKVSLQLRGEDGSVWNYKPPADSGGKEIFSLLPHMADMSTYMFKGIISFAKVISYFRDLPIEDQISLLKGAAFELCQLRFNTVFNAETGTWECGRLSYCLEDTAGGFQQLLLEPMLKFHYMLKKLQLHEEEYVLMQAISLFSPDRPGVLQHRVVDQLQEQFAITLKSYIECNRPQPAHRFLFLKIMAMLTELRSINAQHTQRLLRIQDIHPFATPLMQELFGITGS
The data set can be described thus: Inhibition of human PXR.

Data set [7] has as its target T1, Oxysterols receptor LXR-alpha. The data set can be described thus: Activation of LXRalpha by GAL4 reporter gene assay.
In data set [8] the target is Oxysterols receptor LXR-beta (Homo sapiens, UniProt P55055).
Oxysterols receptor LXR-beta, sequence (P55055 whole entry): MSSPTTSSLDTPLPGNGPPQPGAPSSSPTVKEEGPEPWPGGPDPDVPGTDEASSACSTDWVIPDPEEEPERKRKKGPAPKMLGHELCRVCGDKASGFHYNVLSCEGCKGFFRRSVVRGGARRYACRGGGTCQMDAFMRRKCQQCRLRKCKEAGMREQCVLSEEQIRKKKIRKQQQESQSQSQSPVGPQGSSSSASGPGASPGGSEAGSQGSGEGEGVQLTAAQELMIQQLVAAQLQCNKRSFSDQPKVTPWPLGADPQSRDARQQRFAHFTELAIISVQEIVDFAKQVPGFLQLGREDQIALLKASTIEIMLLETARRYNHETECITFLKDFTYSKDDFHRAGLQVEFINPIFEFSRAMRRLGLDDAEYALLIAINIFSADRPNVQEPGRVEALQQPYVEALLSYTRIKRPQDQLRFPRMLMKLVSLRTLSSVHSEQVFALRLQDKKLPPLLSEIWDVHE

What is called IC50 is the concentration needed to halve the response being measured. In the case of `CCCCN(Cc1cc(Cl)cc(Cl)c1O)c1ccc(C(O)(C(F)(F)F)C(F)(F)F)cc1`, the IC50 in data set [1] came to 890 nM; in data set [2], 1290 nM. For the same compound, the Activity in data set [3] is recorded as less than 0.5.
For the compound `CCCCN(Cc1cc(Cl)c(OC)c(Cl)c1)c1ccc(C(O)(C(F)(F)F)C(F)(F)F)cc1`, the IC50 came to 170 nM in data set [1] and 15 nM in data set [2]. In addition, the Activity in data set [3] is 1; in data set [4], 0.8.
As to `CCCCN(Cc1ccc(O)c(Cl)c1)c1ccc(C(O)(C(F)(F)F)C(F)(F)F)cc1`, the values for the IC50 in data set [1] and in data set [2] were 560 nM and 25 nM, respectively. Besides, the Activity in data set [3] was 1; in data set [4] it was 0.6.
In the case of `CCCCN(Cc1ccccc1O)c1ccc(C(O)(C(F)(F)F)C(F)(F)F)cc1`, the figures for the IC50 in data set [1] and in data set [2] were 180 nM and 35 nM, respectively. In addition, the figures for the Activity in data set [3] and in data set [4] were 1 and 0.6, respectively.
For the compound `CCCCN(Cc1cccc(O)c1)c1ccc(C(O)(C(F)(F)F)C(F)(F)F)cc1`, the IC50 in data set [1] was 160 nM; in data set [2], 35 nM. Moreover, the Activity is listed as 1 in data set [3] and 0.5 in data set [4].
Regarding `CCCCN(Cc1ccc(O)cc1)c1ccc(C(O)(C(F)(F)F)C(F)(F)F)cc1`, the IC50 in data set [1] was 955 nM.
Regarding `CCCCN(Cc1cc(Cl)c(OC)c(OC)c1)c1ccc(C(O)(C(F)(F)F)C(F)(F)F)cc1`, the results for the IC50 in data set [1] and in data set [2] were 165 nM and 15 nM, respectively. Also, the Activity stood at 1 in data set [3] and 0.4 in data set [4].
By EC50 is commonly meant the concentration giving half of the maximal effect. The low end stands for an effect from little substance, the high end for a need for much substance. On to `CCCCN(Cc1cc(Cl)c(O)c(Cl)c1)c1ccc(C(O)(C(F)(F)F)C(F)(F)F)cc1`, for which the IC50 turned out to be 180 nM in data set [1] and 15 nM in data set [2]. The Activity is listed as 1 in data set [3] and less than 0.1 in data set [4]. The remaining at 24 h, 1 µM in data set [5] was 40%. The EC50 in data set [6] is 250 nM; in data set [7], 3000 nM.
`CCCCN(Cc1cc(Cl)cc(Cl)c1)c1ccc(C(O)(C(F)(F)F)C(F)(F)F)cc1`: the IC50 came out at 195 nM in data set [1] and 10 nM in data set [2]. For the same compound, the Activity in data set [3] is listed as 1; in data set [4], 0.7.
As for `CCCCN(Cc1cc(OC(F)(F)F)ccc1O)c1ccc(C(O)(C(F)(F)F)C(F)(F)F)cc1`, in data set [1], the IC50 is 190 nM. Moreover, in data set [4], the Activity is recorded as 1.
For `CCCCN(Cc1ccncc1)c1ccc(C(O)(C(F)(F)F)C(F)(F)F)cc1`, the IC50 in data set [1] turned out to be 90 nM; in data set [2] it was 20 nM. Further, the results for the Activity in data set [3] and in data set [4] were 1 and 1.1, respectively.
Taken in the same sequence, the figures for `CCCCN(Cc1cccc(OCCO)c1)c1ccc(C(O)(C(F)(F)F)C(F)(F)F)cc1` were 115 nM, 5 nM, 1 and 1.8.
Taken in the same sequence, the figures for `CCCCN(Cc1ccccn1)c1ccc(C(O)(C(F)(F)F)C(F)(F)F)cc1` were 120 nM, 20 nM, 1 and 1.1.
`CCCCN(Cc1ccccc1)c1ccc(C(O)(C(F)(F)F)C(F)(F)F)cc1`: the IC50 in data set [1] is 170 nM; in data set [2], 25 nM. The Activity worked out at 1 in data set [3] and 0.8 in data set [4].
As for `CN(Cc1ccccc1)c1ccc(C(O)(C(F)(F)F)C(F)(F)F)cc1`, the IC50 in data set [1] is 310 nM. Also, in data set [4], the Activity is reported as more than 0.5.
As to `CCCCN(Cc1cc(Cl)ccc1O)c1ccc(C(O)(C(F)(F)F)C(F)(F)F)cc1`, the IC50 turned out to be 220 nM in data set [1] and 55 nM in data set [2]. For the same compound, the Activity in data set [3] and in data set [4] was 1 in each case.
Compound `OC(c1ccc(N(Cc2ccccc2)Cc2ccccc2)cc1)(C(F)(F)F)C(F)(F)F` yielded an IC50 in data set [1] of 315 nM. In addition, the Activity in data set [4] is on record as more than 0.5.
Take `CCCCN(Cc1cccc(F)c1O)c1ccc(C(O)(C(F)(F)F)C(F)(F)F)cc1`: the half-maximal inhibitory concentration (IC50) in data set [1] amounted to 615 nM; in data set [2], 60 nM. For the same compound, the Activity amounted to 1 in data set [3] and 1.9 in data set [4].
The corresponding values for `CCCCN(Cc1cc(Cl)c(O)c(OC)c1)c1ccc(C(O)(C(F)(F)F)C(F)(F)F)cc1` are 775 nM, 10 nM, 1 and less than 0.2.
Consider `O=C(O)Cc1cccc(OCCCN(Cc2cccc(C(F)(F)F)c2Cl)CC(c2ccccc2)c2ccccc2)c1`, for which the IC50 in data set [1] turned out to be 235 nM; in data set [2], 20 nM; in data set [8], 30 nM. In addition, the Activity in data set [3] and in data set [4] was 1 throughout.
On to `O=S(=O)(c1ccccc1)N(CC(F)(F)F)c1ccc(C(O)(C(F)(F)F)C(F)(F)F)cc1` [T091317], for which, in data set [2], the IC50 was found to be 100 nM. The Activity in data set [3] and in data set [4] was 1 each time. For the same compound, the remaining at 24 h, 1 µM in data set [5] amounted to 65%.
